Results as given in US8337444B2, “Measurement of cardiac output and blood volume by non-invasive detection of indicator dilution for hemodialysis” (Alfred E. Mann Institute for Biomedical Engineering at the …, priority 2001, dated 2012).

Legend:
[1] = Blood ICG concentration after high dose intravenous injection (calibration sequence); format: in vivo, New Zealand White rabbits; details: rabbit, 1 mg ICG intravenously, metabolized by the liver
Text: A. A sample method and system for measuring cardiac output and blood volume. Experiments have been performed in New Zealand White rabbits (2.8-3.5 Kg) anesthetized with halothane and artificially ventilated with an oxygen-enriched gas mixture (Fio2˜0.4) to achieve a Sao2 above 99% and an end-tidal CO2 between 28 and 32 mm Hg (FIG. 4). The left femoral artery was cannulated for measurement of the arterial blood pressure throughout the procedure. A small catheter was positioned in the left brachial vein to inject the indicator, ICG. Body temperature was maintained with a heat lamp.
Calibration of the transcutaneous fluorescence intensity measured at the level of the animals' ear as a function of ICG concentration in blood was performed as follows. […]
As the liver metabolizes ICG, the blood ICG concentration decreases back to 0 in about 20 minutes. […] The fluorescence intensity of the blood in the cuvette was converted to a measurement of concentration using the known standard curve of fluorescence intensity versus ICG concentration established for the cuvette. ICG fluorescence was measured at the level of the ear at the exact time of the blood sample withdrawal. […]
For the range of concentrations used in these studies, ICG concentration and transcutaneous fluorescence were linearly related. […]

[2] = cited from earlier work
blood proteins = details: protein-bound ICG not cleared by dialysis; cited from earlier work

SMILES: CC1(C)C(/C=C/C=C/C=C/C=C2\N(CCCCS(=O)(=O)O)c3ccc4ccccc4c3C2(C)C)=[N+](CCCCS(=O)(=O)[O-])c2ccc3ccccc3c21 [ICG, indocyanine green]
- time for blood ICG concentration to decrease back to 0 [1]: about 20 minutes
- stability in aqueous solution [2]: breaks down quickly
- fraction of ICG injected in the bloodstream that binds to blood proteins (blood proteins): more than 95%
